Reference: paper PMC5729429, “Gimatecan exerts potent antitumor activity against gastric cancer in vitro and in vivo via AKT and MAPK signaling pathways” (Journal of Translational Medicine, 2017)
Where a name gives a salt, the structure may show the parent alone.

Experiments:
Bak, Bcl-2, cleaved PARP = test: Western blot of Bak, Bcl-2, PARP in GC cells; type: cell-based, human; conditions: SNU-1 and HGC27
Procedure: SNU-1, HGC27 and NCI-N87 cells were starved in serum-free medium overnight, exposed to inhibitors for 48 h and harvested at 70–80% confluence. Total protein was extracted from cells or xenograft tissues on ice, using RIPA Lysis Buffer (Beyotime, Shanghai, China) supplemented with complete protease inhibitor and phosphatase inhibitor cocktail (Roche, Basel, Switzerland). Protein concentration was measured using a BCA Protein Assay Kit (Beyotime, Shanghai, China), and 50 μg protein from each sample was separated by 10% SDS-PAGE. After transfer to nitrocellulose membranes (GE Healthcare, Piscataway, NJ), samples were incubated with corresponding primary antibodies diluted in 5% BSA at 4 °C overnight and then with secondary antibodies at room temperature for 1 h. […] Western-blotting bands were quantified and normalized by ImageJ software.
Cells were treated with gimatecan (0–1 µM) and irinotecan (0–1 µM) for 24 h and stained with Annexin V-PE/7-AAD. Sums of percentages of early apoptosis (Q3) and late apoptosis (Q2) were calculated as the total apoptosis ratios. c, d Pro- and anti-apoptotic proteins including Bcl-2, Bak, PARP and cleaved PARP were assessed by western-blotting in SNU-1 and NCI-N87 cells. Western-blotting bands were quantified and normalized by ImageJ. […]

HGC27 cells = test: Cell viability assay (CCK-8), HGC27; type: cell-based; conditions: Homo sapiens, HGC-27, Fig. S1A 48 h exposure, 0–1 µM, read-out: IC50 antiproliferative effect
Procedure: (§1) Human GC cell lines SNU-1, HGC27 and MGC803 were purchased from Peking Union Medical College, and the NCI-N87 cell line was a gift from You-yong Lv, Ph.D. (Peking University Cancer Hospital and Institute). Cells were cultured in RPMI 1640 medium and Dulbecco’s Modified Eagle Medium (Gibco-BRL, MD, USA), respectively, supplemented with 10% fetal bovine serum (Gibco-BRL), 100 U/ml penicillin (Gibco-BRL) and […] streptomycin (Gibco-BRL). Cells were incubated in a humidified incubator (37 °C) supplemented with 5% CO2.
(§2) SNU-1, HGC27, MGC803 and NCI-N87 cells (5000 cells/well) were seeded in 96-well plates and incubated overnight in complete medium, followed by exposure to gimatecan (0–1 µM) or irinotecan (0–1 µM) for 24, 48, or 72 h. Cell viability was measured using a Cell Counting Kit-8 (Dojindo, Kumamoto, Japan) according to the manufacturer’s instructions. Absorbance at 450 nm was measured using a microplate spectrophotometer. All experiments were repeated at least three times.

SNU-1 cells = test: Cell viability assay (CCK-8), SNU-1; type: cell-based; conditions: Homo sapiens, SNU1, Fig. 1a 48 h exposure, 0–1 µM, read-out: IC50 antiproliferative effect
Procedure: as §1, §2

NCI-N87 cells = test: Cell viability assay (CCK-8), NCI-N87; type: cell-based; conditions: Homo sapiens, Fig. 1a 48 h exposure, 0–1 µM, read-out: IC50 antiproliferative effect
Procedure: as §1, §2

MGC803 cells = test: Cell viability assay (CCK-8), MGC803; type: cell-based; conditions: Homo sapiens, MGC-803, Fig. S1B 48 h exposure, 0–1 µM, read-out: IC50 antiproliferative effect
Procedure: as §1
[…] Cell viability was measured using a Cell Counting Kit-8 (Dojindo, Kumamoto, Japan) according to the manufacturer’s instructions. Absorbance at 450 nm was measured using a microplate spectrophotometer. All experiments were repeated at least three times.

ABCG2 = test system: ABCG2; parameters: method as in earlier work; conditions: ref 32 (Marchetti et al., 2007); cited from earlier work

Row | Compound | Bak, Bcl-2 and PARP protein after treatment (Bak, Bcl-2, cleaved PARP) | IC50 (HGC27 cells) [µM] | IC50 (SNU-1 cells) [µM] | IC50 (NCI-N87 cells) [µM] | IC50 (MGC803 cells) [µM] | resistance resulting from ABCG2 expression (ABCG2)
1 | CCc1c2c(nc3ccc(OC(=O)N4CCC(N5CCCCC5)CC4)cc13)-c1cc3c(c(=O)n1C2)COC(=O)[C@]3(O)CC [Irinotecan, irinotecan hydrochloride] | apoptosis was not induced | 0.152 | 3.25 | 0.142 | – | –
2 | CC[C@@]1(O)C(=O)OCc2c1cc1n(c2=O)Cc2c-1nc1ccccc1c2/C=N/OC(C)(C)C [Gimatecan, 7-t-butoxyiminomethylcamptothecin] | Bak and cleaved PARP expression was increased and Bcl-2 expression was inhibited | 0.00163 | 0.00195 | 0.0882 | 0.00329 | eight to tenfold
